Data: patent publication US20240009204A1 (Starton Therapeutics, Inc., priority 2020, published 2024)
Marks after values point to notes of the source that are not given here.

Columns and labels:
[1] = test system: healthy female volunteers; assay: Phase 1 study: antiemetic effect of oral olanzapine doses after apomorphine challenge; assay type: in vivo, human; conditions: for Nausea Score 1-120 min. / Nausea Score 1-120 min. (severity in words) / Retching (incidence) / Vomiting (incidence): apomorphine challenge day 8; for Nausea Score 1-120 min.: 1=no nausea, 10=severe nausea
Protocol: Twenty-four healthy female volunteers were enrolled. Four active-treatment groups and a cohort of placebo-treated subjects were evaluated.
Subjects were administered study drug once daily for 8 days. During this period, subjects maintained a study diary of their side effects. The subject diary was used to collect on a daily basis any adverse events including an assessment of the presence and/or intensity of sedation on a numeric scale where 1=no sedation and 10=excessive sedation.
On the 8th day, subjects were administered apomorphine at a dose of 0.05 mg/kg and assessed over 6 hours. During this period, subjects were asked to record episodes of nausea on a numeric scale every 15 minutes for the duration of assessment. The intensity of nausea was captured using a 1-10 rating scale where 1=no nausea and 10=severe nausea. Emesis intensity was also captured where 1=no emesis and 10=severe emesis. Episodes of retching or emesis were collected and measured for the absolute number of retches or vomits during the collection period and documented for the time of the specific event following the administration of the apomorphine.

[2] = clinical; conditions: human, plasma, po
[3] = oral, statistical integration of nausea scores and incidence of retching and vomiting

Cc1cc2c(s1)Nc1ccccc1N=C2N1CCN(C)CC1 [olanzapine, 2-methyl-10-(4-methyl-1-piperazinyl)-4H-thieno-[2,3-b][1.5]benzo-diazepine]
Nausea severity scores 0-120 min following apomorphine challenge, versus placebo ([1]; 2 mg and 8 mg doses): not significantly different than placebo
Nausea severity scores 0-120 min following apomorphine challenge, versus placebo ([1]; 4 mg and 6 mg steady state doses, p<0.05): significantly different than placebo
maximum intensity of nausea, compared between doses ([1]; between the 4 mg, 6 mg and 8 mg dose): no different
Nausea Score 1-120 min. ([1]; oral 2 mg a day for 8 days): 6**
Nausea Score 1-120 min. (severity in words) ([1]; oral 2 mg a day): Moderate
Retching (incidence) ([1]; oral 2 mg a day): 40%
Vomiting (incidence) ([1]; oral 2 mg a day): 40%
Nausea Score 1-120 min. ([1]; oral 4 mg a day for 8 days): 3.4 #
Nausea Score 1-120 min. (severity in words) ([1]; oral 4 mg a day): Mild
Retching (incidence) ([1]; oral 4 mg a day): 0%
Vomiting (incidence) ([1]; oral 4 mg a day): 20%
Nausea Score 1-120 min. ([1]; oral 6 mg a day for 8 days): 3.7 #
Nausea Score 1-120 min. (severity in words) ([1]; oral 6 mg a day): Mild
Retching (incidence) ([1]; oral 6 mg a day): 0%
Vomiting (incidence) ([1]; oral 6 mg a day): 0%
Nausea Score 1-120 min. ([1]; oral 8 mg a day for 8 days): 5**
Nausea Score 1-120 min. (severity in words) ([1]; oral 8 mg a day): Mild
Retching (incidence) ([1]; oral 8 mg a day): 20%
Vomiting (incidence) ([1]; oral 8 mg a day): 20%
minimum effective dose for nausea [1, 3]: 4 mg a day
optimal dose for nausea and vomiting [1, 3]: 6 mg a day
Cmax at 1 day ([2]; 4 mg): 4 to 6 ng/mL
Cmax at 1 day ([2]; 6 mg): 6 to 9 ng/mL
